Structures are written as SMILES. Where “and” joins values, the source holds several entries; their conditions need not be identical. Identical values can stand only once.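 Test compounds were applied to cells in 96-well plates for 48 hours at 5 doses. Here, GI50 denotes the concentration required for 50% inhibition of growth. The concentration for full growth arrest is given as TGI.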 A value given as a limit tells only on which side of the number the result lay.

Test systems include RXF 393 renal; KM12 colon; M14 melanoma; OVCAR-3 ovarian; SF-268 CNS; SR leukemia; HS 578T breast; UO-31 renal.
Holding throughout (assay): NCI-60 cell line screen, 48 h

For `CN(C)CCOc1nc2c3cccnc3cc(-c3cccc(Cl)c3)c2c2ncccc12`, the GI50 with RXF 393 renal was 1.39 µM; in the assay with KM12 colon, 1.39 µM; with M14 melanoma, 1.76 µM; with OVCAR-3 ovarian it was 1.52 µM; with SF-268 CNS, 1.17 µM; in the assay on SR leukemia, 0.371 µM. The results for the GI50 with HS 578T breast and in the assay on UO-31 renal were 1.97 µM and 1.09 µM, respectively. Moreover, the TGI is 2.8 µM in the assay on RXF 393 renal; 3.03 µM in the assay with KM12 colon; 3.48 µM in the assay with M14 melanoma; 4.19 µM in the assay on OVCAR-3 ovarian; 4.37 µM in the assay with SF-268 CNS; 2.15 µM in the assay on SR leukemia. The figures for the TGI in the assay with HS 578T breast and in the assay with UO-31 renal were 5.06 µM and 2.73 µM, respectively.

Turning to `COc1cccc(Cn2cc3c(c2)-c2oncc2CC3)c1`, the GI50 with RXF 393 renal is 0.368 µM; in the assay on KM12 colon, 0.379 µM; with M14 melanoma, 0.374 µM; with OVCAR-3 ovarian, 0.267 µM; in the assay on SF-268 CNS it was 0.918 µM; in the assay with SR leukemia, 0.312 µM. Further, the GI50 with HS 578T breast is 0.249 µM; in the assay with UO-31 renal it was 0.671 µM. Further, the TGI is 3.02 µM with KM12 colon; greater than 48.2 µM in the assay with M14 melanoma; 0.7 µM with OVCAR-3 ovarian; greater than 100 µM in the assay with SF-268 CNS; 6.03 µM in the assay with SR leukemia; 0.886 µM in the assay on HS 578T breast. In the assay on UO-31 renal, this molecule yielded a TGI of 43.7 µM.

Regarding `BrC(Br)(Br)c1cnc2ccccc2n1`, the GI50 in the assay on RXF 393 renal is 1.06 µM; with KM12 colon it was 2.37 µM; in the assay on M14 melanoma, 2.05 µM; in the assay on OVCAR-3 ovarian it was 1.5 µM; in the assay with SF-268 CNS, 4 µM; in the assay with SR leukemia, 1.79 µM. In addition, the results for the GI50 with HS 578T breast and in the assay with UO-31 renal were 2.47 µM and 0.793 µM, respectively. For the same molecule, the TGI is 2.4 µM in the assay on RXF 393 renal; 7.7 µM with KM12 colon; 6.42 µM in the assay with M14 melanoma; 3.04 µM in the assay on OVCAR-3 ovarian; 17.5 µM with SF-268 CNS; 5.81 µM in the assay on SR leukemia. For the same molecule, the TGI with HS 578T breast was found to be 7 µM; in the assay on UO-31 renal, 2.39 µM.

As for `CCOC(=O)N1C/C(=C/c2ccc(OC)cc2)C(=O)/C(=C/c2ccc(OC)cc2)C1`, the GI50 in the assay with RXF 393 renal was 1.56 µM; in the assay on KM12 colon, 0.946 µM; in the assay with M14 melanoma it was 2.11 µM; in the assay with OVCAR-3 ovarian, 2.75 µM; in the assay with SF-268 CNS it was 3.58 µM; in the assay with SR leukemia, 0.579 µM. Further, the GI50 with HS 578T breast was 2.85 µM; in the assay on UO-31 renal, 1.9 µM. Further, the TGI in the assay with RXF 393 renal is 3.09 µM; with KM12 colon, 2.5 µM; in the assay on M14 melanoma, 5.2 µM; in the assay on OVCAR-3 ovarian it was 7.81 µM; in the assay on SF-268 CNS, greater than 45.1 µM; in the assay on SR leukemia, greater than 32.7 µM. Besides, the TGI in the assay with HS 578T breast is greater than 100 µM; with UO-31 renal, 5.19 µM.

Consider `Oc1ccc(Br)cc1/C=N/NC(=S)NC12CC3CC(CC(C3)C1)C2`, for which the GI50 with RXF 393 renal is 1.52 µM; with KM12 colon, 1.8 µM; in the assay with M14 melanoma, 1.86 µM; in the assay on OVCAR-3 ovarian, 1.67 µM; in the assay with SF-268 CNS, 1.44 µM; in the assay with SR leukemia it was 0.682 µM. For the same molecule, the GI50 was 1.99 µM in the assay on HS 578T breast and 1.33 µM in the assay on UO-31 renal. Moreover, the TGI in the assay on RXF 393 renal came out at 3.36 µM; in the assay with KM12 colon, 4.35 µM; in the assay on M14 melanoma it was 5.84 µM; in the assay on OVCAR-3 ovarian, 3.71 µM; in the assay on SF-268 CNS, 4.14 µM; with SR leukemia, 3.47 µM. The TGI in the assay on HS 578T breast turned out to be 6.69 µM; in the assay with UO-31 renal, 2.78 µM.

Regarding `COc1ccc2[nH]c(-c3cccc(N(C)C)c3)cc(=O)c2c1`, the TGI was 0.351 µM in the assay on RXF 393 renal; greater than 100 µM in the assay with M14 melanoma; 0.368 µM with OVCAR-3 ovarian; 33.7 µM in the assay on SF-268 CNS; 1.73 µM with SR leukemia; 0.509 µM in the assay on HS 578T breast. The TGI in the assay with UO-31 renal is greater than 100 µM. Moreover, the GI50 with KM12 colon was 0.393 µM; with M14 melanoma it was 0.325 µM and 0.552 µM; in the assay on SF-268 CNS, 0.657 µM; with UO-31 renal, 0.633 µM.

Take `Cc1ccccc1-n1c(/C=C\c2ccccn2)nc2ccccc2c1=O`: the GI50 was 4.33 µM with RXF 393 renal; 11.1 µM in the assay with KM12 colon; 14.2 µM in the assay with M14 melanoma; 6.75 µM with OVCAR-3 ovarian; 15.2 µM with SF-268 CNS; 3.05 µM in the assay with SR leukemia. The figures for the GI50 in the assay on HS 578T breast and with UO-31 renal were 15.5 µM and 7.51 µM, respectively. Besides, the TGI with RXF 393 renal is 20 µM; in the assay with KM12 colon, 27.9 µM; in the assay with M14 melanoma it was 33.9 µM; in the assay with OVCAR-3 ovarian, 53.6 µM; with SF-268 CNS, greater than 100 µM; in the assay on SR leukemia, 20.4 µM. Further, the TGI with HS 578T breast and in the assay on UO-31 renal was greater than 100 µM each time.

Regarding `COC(=O)c1c2c(c(C)[n+]([O-])c1C)C(=O)C(NCc1cccc(OC)c1)=CC2=O`, the GI50 is 2.58 µM in the assay on RXF 393 renal; 2.48 µM in the assay with KM12 colon; 1.79 µM in the assay on M14 melanoma; 0.512 µM in the assay on OVCAR-3 ovarian; 2.86 µM in the assay on SF-268 CNS; 2.36 µM in the assay with SR leukemia. Also, the results for the GI50 in the assay on HS 578T breast and in the assay on UO-31 renal were 4.1 µM and 2.27 µM, respectively. Also, the TGI in the assay with RXF 393 renal was 5.2 µM; in the assay on KM12 colon, 11.6 µM; in the assay on M14 melanoma, 3.72 µM; in the assay with OVCAR-3 ovarian, 3.21 µM; in the assay on SF-268 CNS, 11.7 µM; in the assay on SR leukemia it was greater than 100 µM. The values for the TGI in the assay on HS 578T breast and in the assay with UO-31 renal were 34.7 µM and 9.25 µM, respectively.

Consider `CC(F)(F)c1cc(F)ccc1-c1sc2cc(O)ccc2c1Oc1ccc(/C=C/C(=O)O)cc1`, for which the GI50 is 2.89 µM in the assay with RXF 393 renal; 4.72 µM in the assay on KM12 colon; 4.96 µM in the assay with M14 melanoma; 8.81 µM in the assay with OVCAR-3 ovarian; 7.31 µM in the assay with SF-268 CNS; 3.66 µM in the assay with SR leukemia. Also, the values for the GI50 in the assay on HS 578T breast and in the assay on UO-31 renal were 4.89 µM and 12.9 µM, respectively. Moreover, the TGI in the assay on RXF 393 renal was 14.5 µM; in the assay on KM12 colon, 18.4 µM; in the assay with M14 melanoma it was 25 µM; in the assay with OVCAR-3 ovarian it was 20.9 µM; with SF-268 CNS, 24.1 µM; with SR leukemia, greater than 100 µM. Further, the TGI stood at 32.8 µM in the assay on HS 578T breast and 31.5 µM in the assay on UO-31 renal.

For the origin of these results see PubChem BioAssay (NCI).
